Laboratory results as given in ChEMBL document CHEMBL1151757, “Synthesis, radiosynthesis, and biological evaluation of fluorine-18-labeled 2beta-carbo(fluoroalkoxy)-3beta-(3'-((Z)-2-haloethenyl)phenyl)nortropanes: candidate radioligands for in vivo imaging of the serotonin transporter with positron emission tomography” (J Med Chem, 2008).

Legend:
[1] = tested on: Thalamus; test: Drug uptake in anesthetized cynomolgus monkey brain thalamus after 12.5 mins postinjection; format: ADME, organism-based, Macaca fascicularis; set-up: unit not given here; settings: in vivo
[2] = tested on: Thalamus; test: Drug uptake in anesthetized cynomolgus monkey brain thalamus after 6.5 mins postinjection; format: ADME, organism-based, Macaca fascicularis; set-up: unit not given here; settings: in vivo
[3] = tested on: Putamen; test: Drug uptake in anesthetized cynomolgus monkey brain putamen after 3.5 mins postinjection; format: ADME, organism-based, Macaca fascicularis; settings: in vivo
[4] = tested on: Putamen; test: Drug uptake in anesthetized cynomolgus monkey brain putamen after 215 mins postinjection; format: ADME, organism-based, Macaca fascicularis; settings: in vivo
[5] = Drug uptake in anesthetized cynomolgus monkey brain frontal lobe after 65 mins postinjection; format: ADME, organism-based, Macaca fascicularis; settings: in vivo
[6] = tested on: Putamen; test: Drug uptake in anesthetized cynomolgus monkey brain putamen after 35 mins postinjection; format: ADME, organism-based, Macaca fascicularis; set-up: unit not given here; settings: in vivo
[7] = Ratio of drug uptake in pons to cerebellum in anesthetized cynomolgus monkey after 145 mins postinjection; format: ADME, organism-based, Macaca fascicularis; settings: in vivo
[8] = tested on: Putamen; test: Drug uptake in anesthetized cynomolgus monkey brain putamen after 135 mins postinjection; format: ADME, organism-based, Macaca fascicularis; settings: in vivo, 2.25 h
[9] = tested on: Medulla; test: Drug uptake in anesthetized cynomolgus monkey brain medulla after 1.5 mins postinjection; format: ADME, organism-based, Macaca fascicularis; settings: in vivo, 0.025 h
[10] = Ratio of drug uptake in putamen to cerebellum in anesthetized cynomolgus monkey after 235 mins postinjection; format: ADME, organism-based, Macaca fascicularis; settings: in vivo
[11] = Ratio of drug uptake in occipital lobe to cerebellum in anesthetized cynomolgus monkey after 12.5 mins postinjection; format: ADME, organism-based, Macaca fascicularis; settings: in vivo
[12] = tested on: Medulla; test: Drug uptake in anesthetized cynomolgus monkey brain medulla after 6.5 mins postinjection; format: ADME, organism-based, Macaca fascicularis; settings: in vivo
[13] = tested on: Caudate; test: Drug uptake in anesthetized cynomolgus monkey brain caudate after 85 mins postinjection; format: ADME, organism-based, Macaca fascicularis, Caudate nucleus; settings: in vivo
[14] = tested on: Putamen; test: Drug uptake in anesthetized cynomolgus monkey brain putamen after 125 mins postinjection; format: ADME, organism-based, Macaca fascicularis; settings: in vivo
[15] = tested on: Caudate; test: Drug uptake in anesthetized cynomolgus monkey brain caudate after 105 mins postinjection; format: ADME, organism-based, Macaca fascicularis, Caudate nucleus; settings: in vivo, 1.75 h
[16] = tested on: Caudate; test: Drug uptake in anesthetized cynomolgus monkey brain caudate after 165 mins postinjection; format: ADME, organism-based, Macaca fascicularis, Caudate nucleus; settings: in vivo, 2.75 h
[17] = tested on: Thalamus; test: Drug uptake in anesthetized cynomolgus monkey brain thalamus after 155 mins postinjection; format: ADME, organism-based, Macaca fascicularis; set-up: unit not given here; settings: in vivo
[18] = tested on: Midbrain; test: Drug uptake in anesthetized cynomolgus monkey brain midbrain after 155 mins postinjection; format: ADME, organism-based, Macaca fascicularis; settings: in vivo
[19] = Ratio of drug uptake in medulla to cerebellum in anesthetized cynomolgus monkey after 95 mins postinjection; format: ADME, organism-based, Macaca fascicularis; settings: in vivo
[20] = tested on: Medulla; test: Drug uptake in anesthetized cynomolgus monkey brain medulla after 215 mins postinjection; format: ADME, organism-based, Macaca fascicularis; settings: in vivo
[21] = tested on: Pons; test: Drug uptake in anesthetized cynomolgus monkey brain pons after 2.5 mins postinjection; format: ADME, organism-based, Macaca fascicularis; settings: in vivo
[22] = tested on: Putamen; test: Drug uptake in anesthetized cynomolgus monkey brain putamen after 85 mins postinjection; format: ADME, organism-based, Macaca fascicularis; set-up: unit not given here; settings: in vivo
[23] = tested on: Pons; test: Drug uptake in anesthetized cynomolgus monkey brain pons after 22.5 mins postinjection; format: ADME, organism-based, Macaca fascicularis; settings: in vivo, 0.375 h
[24] = tested on: Pons; test: Drug uptake in anesthetized cynomolgus monkey brain pons after 18.5 mins postinjection; format: ADME, organism-based, Macaca fascicularis; settings: in vivo
[25] = tested on: Putamen; test: Drug uptake in anesthetized cynomolgus monkey brain putamen after 55 mins postinjection; format: ADME, organism-based, Macaca fascicularis; set-up: unit not given here; settings: in vivo
[26] = Ratio of drug uptake in putamen to cerebellum in anesthetized cynomolgus monkey after 75 mins postinjection; format: ADME, organism-based, Macaca fascicularis; settings: in vivo, 1.25 h
[27] = tested on: Pons; test: Drug uptake in anesthetized cynomolgus monkey brain pons after 6.5 mins postinjection; format: ADME, organism-based, Macaca fascicularis; settings: in vivo
[28] = Ratio of drug uptake in pons to cerebellum in anesthetized cynomolgus monkey after 175 mins postinjection; format: ADME, organism-based, Macaca fascicularis; settings: in vivo
[29] = tested on: Midbrain; test: Drug uptake in anesthetized cynomolgus monkey brain midbrain after 12.5 mins postinjection; format: ADME, organism-based, Macaca fascicularis; set-up: unit not given here; settings: in vivo
[30] = tested on: Thalamus; test: Drug uptake in anesthetized cynomolgus monkey brain thalamus after 215 mins postinjection; format: ADME, organism-based, Macaca fascicularis; set-up: unit not given here; settings: in vivo
[31] = tested on: Pons; test: Drug uptake in anesthetized cynomolgus monkey brain pons after 1.5 mins postinjection; format: ADME, organism-based, Macaca fascicularis; settings: in vivo, 0.025 h
[32] = tested on: Caudate; test: Drug uptake in anesthetized cynomolgus monkey brain caudate after 215 mins postinjection; format: ADME, organism-based, Macaca fascicularis, Caudate nucleus; settings: in vivo
[33] = tested on: Pons; test: Drug uptake in anesthetized cynomolgus monkey brain pons after 185 mins postinjection; format: ADME, organism-based, Macaca fascicularis; settings: in vivo
[34] = Ratio of drug uptake in caudate to cerebellum in anesthetized cynomolgus monkey after 95 mins postinjection; format: ADME, organism-based, Macaca fascicularis; settings: in vivo
[35] = tested on: Midbrain; test: Drug uptake in anesthetized cynomolgus monkey brain midbrain after 18.5 mins postinjection; format: ADME, organism-based, Macaca fascicularis; set-up: unit not given here; settings: in vivo
[36] = tested on: Thalamus; test: Drug uptake in anesthetized cynomolgus monkey brain thalamus after 9.5 mins postinjection; format: ADME, organism-based, Macaca fascicularis; set-up: unit not given here; settings: in vivo
[37] = Ratio of drug uptake in pons to cerebellum in anesthetized cynomolgus monkey after 105 mins postinjection; format: ADME, organism-based, Macaca fascicularis; settings: in vivo, 1.75 h
[38] = tested on: Medulla; test: Drug uptake in anesthetized cynomolgus monkey brain medulla after 75 mins postinjection; format: ADME, organism-based, Macaca fascicularis; settings: in vivo, 1.25 h
[39] = tested on: Putamen; test: Drug uptake in anesthetized cynomolgus monkey brain putamen after 115 mins postinjection; format: ADME, organism-based, Macaca fascicularis; set-up: unit not given here; settings: in vivo
[40] = tested on: Medulla; test: Drug uptake in anesthetized cynomolgus monkey brain medulla after 65 mins postinjection; format: ADME, organism-based, Macaca fascicularis; settings: in vivo
[41] = tested on: Putamen; test: Drug uptake in anesthetized cynomolgus monkey brain putamen after 0.5 mins postinjection; format: ADME, organism-based, Macaca fascicularis; settings: in vivo
[42] = Ratio of drug uptake in caudate to cerebellum in anesthetized cynomolgus monkey after 225 mins postinjection; format: ADME, organism-based, Macaca fascicularis; settings: in vivo, 3.75 h
[43] = tested on: Thalamus; test: Drug uptake in anesthetized cynomolgus monkey brain thalamus after 135 mins postinjection; format: ADME, organism-based, Macaca fascicularis; set-up: unit not given here; settings: in vivo, 2.25 h
[44] = tested on: Thalamus; test: Drug uptake in anesthetized cynomolgus monkey brain thalamus after 0.5 mins postinjection; format: ADME, organism-based, Macaca fascicularis; settings: in vivo
[45] = Drug uptake in anesthetized cynomolgus monkey brain cerebellum after 1.5 mins postinjection; format: ADME, organism-based, Macaca fascicularis; settings: in vivo, 0.025 h
[46] = tested on: Medulla; test: Drug uptake in anesthetized cynomolgus monkey brain medulla after 85 mins postinjection; format: ADME, organism-based, Macaca fascicularis; settings: in vivo
[47] = tested on: Thalamus; test: Drug uptake in anesthetized cynomolgus monkey brain thalamus after 4.5 mins postinjection; format: ADME, organism-based, Macaca fascicularis; set-up: unit not given here; settings: in vivo, 0.075 h
[48] = tested on: Pons; test: Drug uptake in anesthetized cynomolgus monkey brain pons after 115 mins postinjection; format: ADME, organism-based, Macaca fascicularis; settings: in vivo
[49] = tested on: Medulla; test: Drug uptake in anesthetized cynomolgus monkey brain medulla after 12.5 mins postinjection; format: ADME, organism-based, Macaca fascicularis; settings: in vivo
[50] = tested on: Caudate; test: Drug uptake in anesthetized cynomolgus monkey brain caudate after 155 mins postinjection; format: ADME, organism-based, Macaca fascicularis, Caudate nucleus; settings: in vivo
[51] = Drug uptake in anesthetized cynomolgus monkey brain cerebellum after 225 mins postinjection; format: ADME, organism-based, Macaca fascicularis; settings: in vivo, 3.75 h

Which Drug uptake [1] does the source give for `O=C(OCC[18F])C1C2CCC(CC1c1ccc(/C=C\I)cc1)N2` (stereo unspecified) here?
Its Drug uptake is 2.29.

And the Drug uptake [2]?
The Drug uptake was 1.7.

And the Drug uptake [3]?
The Drug uptake was 0.82.

And the Drug uptake [4]?
Its Drug uptake is 3.93.

And the Drug uptake [5]?
Its Drug uptake is 2.03.

What about the Drug uptake [6] of the same molecule?
Its Drug uptake is 3.57.

And the Ratio [7]?
The Ratio was 2.3.

What about the Drug uptake [8] of the same molecule?
Its Drug uptake is 4.33.

What about the Drug uptake [9] of the same molecule?
Its Drug uptake is 0.14.

And the Ratio [10]?
Its Ratio is 3.8.

And the Ratio [11]?
The Ratio was 0.8.

What about the Drug uptake [12] of the same molecule?
Its Drug uptake is 2.02.

And the Drug uptake [13]?
Its Drug uptake is 3.03.

What about the Drug uptake [14] of the same molecule?
The Drug uptake was 4.34.

And the Drug uptake [15]?
Its Drug uptake is 3.13.

What about the Drug uptake [16] of the same molecule?
The Drug uptake was 2.99.

And the Drug uptake [17]?
Its Drug uptake is 3.97.

What about the Drug uptake [18] of the same molecule?
Its Drug uptake is 4.65.

And the Ratio [19]?
Its Ratio is 1.8.

And the Drug uptake [20]?
Its Drug uptake is 3.32.

What about the Drug uptake [21] of the same molecule?
The Drug uptake was 0.36.

And the Drug uptake [22]?
The Drug uptake was 4.32.

What about the Drug uptake [23] of the same molecule?
Its Drug uptake is 2.4.

What about the Drug uptake [24] of the same molecule?
The Drug uptake was 2.17.

And the Drug uptake [25]?
The Drug uptake was 4.02.

What about the Ratio [26] of the same molecule?
Its Ratio is 1.8.

What about the Drug uptake [27] of the same molecule?
The Drug uptake was 1.36.

And the Ratio [28]?
Its Ratio is 2.7.

What about the Drug uptake [29] of the same molecule?
The Drug uptake was 2.38.

And the Drug uptake [30]?
The Drug uptake was 3.47.

What about the Drug uptake [31] of the same molecule?
Its Drug uptake is 0.06.

And the Drug uptake [32]?
The Drug uptake was 2.81.

What about the Drug uptake [33] of the same molecule?
The Drug uptake was 3.44.

And the Ratio [34]?
The Ratio was 1.4.

What about the Drug uptake [35] of the same molecule?
Its Drug uptake is 2.78.

What about the Drug uptake [36] of the same molecule?
The Drug uptake was 2.06.

And the Ratio [37]?
The Ratio was 1.8.

And the Drug uptake [38]?
The Drug uptake was 3.82.

What about the Drug uptake [39] of the same molecule?
Its Drug uptake is 4.34.

And the Drug uptake [40]?
Its Drug uptake is 3.75.

What about the Drug uptake [41] of the same molecule?
The Drug uptake was 0.

And the Ratio [42]?
The Ratio was 2.5.

What about the Drug uptake [43] of the same molecule?
The Drug uptake was 3.99.

What about the Drug uptake [44] of the same molecule?
The Drug uptake was 0.

And the Drug uptake [45]?
The Drug uptake was 0.1.

What about the Drug uptake [46] of the same molecule?
The Drug uptake was 3.91.

And the Drug uptake [47]?
The Drug uptake was 1.21.

And the Drug uptake [48]?
Its Drug uptake is 3.65.

And the Drug uptake [49]?
The Drug uptake was 2.59.

And the Drug uptake [50]?
The Drug uptake was 3.03.

What about the Drug uptake [51] of the same molecule?
Its Drug uptake is 1.08.
